One experiment deals with PUMA expression. The experiment can be described thus: Cell-based Puma expression assay (western blot). Details: species or system human. The procedure:
Biological Example 4: Puma Expression and Caspases Activation Assay
Protocols for Cell-Based Puma Expression and Caspase Activation Assays
Cell lines: All human tumor-derived cancer cell lines were purchased from American Type Culture Collection. Human tumor-derived cancer cell lines Panc-1 (expressing KRas G12D mutant), MiaPaca-2 (expressing KRas G12C mutant), A549 (expressing KRas G12S mutant), and A375 (expressing wild type KRas) were grown in complete DMEM-High Glucose medium and NCI-H1975 (expressing wild type KRas), MM.1R (expressing wild type KRas) and IM.9 (expressing wild type KRas) were grown in RPMI1640 medium. Human tumor-derived cancer cell line BT-549 (expressing wild type KRas) was grown in RPMI1640 medium with 11.8U insulin. All mediums were supplemented with penicillin (100 U/mL), streptomycin (100 μg/mL), and 10% heat-inactivated FBS at 37° C. in a humidified incubator with 5% CO2.
Method: Cells were plated at 300,000 to 800,000 cells/well density in a 6-well plate in the presence of 10% FBS. The next day small molecules to be tested were added to the cells in the final concentration of 3 μM in the presence of 0.3% DMSO for 48 hours incubation at 37° C. For IC50 value determination, serial dilutions of compounds were added to cells under the same conditions. Following 48 hours of incubation cells were lysed with lysis buffer containing 1% Triton X-100, EDTA, and Halt™ Protease & Phosphatase Inhibitor Cocktail (Thermo Scientific). Protein concentration was assessed by BCA protein assay (Thermo Scientific). Increase expression of PUMA and active/cleaved forms of caspase 3, caspase 6 and caspase 9 were detected by western blot.
Western blot protocol: Equal amounts of protein (15-50 μg) were separated by SDS-PAGE and transferred to nitrocellulose membranes (Invitrogen by Thermo Fisher Scientific). The membrane was stained with Ponceau S Stain (Boston BioProducts) to verify uniform protein loading. Membranes were blocked with 10% milk and expression levels of PUMA was assessed by incubating overnight at 4° C. with the antibody PUMA (D30C10) from Cell Signaling Technology (#12450) and active/cleaved forms of caspase 3, caspase 6 and caspase 9 by incubating overnight at 4° C. with the following antibodies: cleaved caspase-3 (Asp175) (5A1E), cleaved caspase-6 (Asp162) and cleaved caspase-9 (Asp330) (D2D4) (all antibodies from Cell Signaling Technology). Then the membranes were incubated with HRP-conjugated secondary antibody (Jackson Immunoresearch, West Grove, PA). Bands were incubated in Amersham ECL Prime Western Blotting Detection Reagent (GE Healthcare) and visualized using the ChemiDoc MP imaging system (Bio-Rad).
Background: A western blot detects proteins with antibodies after separation by electrophoresis.

In a further experiment the test system is active/cleaved caspase 6. The experiment can be described thus: Cell-based caspase activation assay (western blot). Details: species or system human.
Another experiment concerns active/cleaved caspase 3. As to the kind of experiment: Cell-based caspase activation assay (western blot). Further details: species or system human.
The test system of the next experiment is active/cleaved caspase 9. The experiment can be described thus: Cell-based caspase activation assay (western blot). Further details: species or system human.
The subject of experiment [1] is GP2d (expressing KRas G12D mutant). The experiment can be described thus: Proliferation Assay (Cell Viability Assay). It is filed as cell-based. As to conditions: Homo sapiens, Proliferation assay, read-out: GP2d IC50 (nM) Colorectal. Put shortly:
(§1)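 Cells plated at 2000–5000/well overnight, then treated 2–4 days at 37 °C, 5% CO2 with compound at 10 μM single dose or serial dilutions for IC50, in 0.3% DMSO and 10% FBS. Viability read by CellTiter 96 Aqueous One (MTS); % proliferation inhibition calculated from raw data.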

Experiment [2] deals with MM.1R (expressing wild type KRAS). As to the kind of experiment: Proliferation Assay (Cell Viability Assay). Type of experiment: cell-based. Conditions: Homo sapiens, read-out: MM.1R IC50 (nM) Multiple Myloma. Put shortly: as §1

As a reminder, the IC50 is the concentration that inhibits the measured activity by half.

Each structure is given as a SMILES string.

On to `Cc1c(-c2ccn(C(C)C)n2)cn2nc(-c3nccn3C)nc(Nc3cc4n(n3)CCO4)c12` [Compound 91, N-(6-(1-Isopropyl-1H-pyrazol-3-yl)-5-methyl-2-(1-methyl-1H-imidazol-2-yl)pyrrolo[2,1-f][1,2,4]triazin-4-yl)-2,3-dihydropyrazolo[5,1-b]oxazol-6-amine], for which the “Increased PUMA expression” value in the experiment on PUMA expression (A549, after 48 hours) is “yes”; in the experiment on PUMA expression (BT-549, after 48 hours), “yes”; in the experiment on PUMA expression (MiaPaca2, after 48 hours), “yes”. For the same compound, the “Caspase 6 activation” value in the experiment on active/cleaved caspase 6 (A549, after 48 hours) is listed as “yes”; with active/cleaved caspase 6 (BT-549, after 48 hours), “yes”; in the experiment on active/cleaved caspase 6 (MiaPaca2, after 48 hours) it was “yes”. Moreover, the “Caspase 3 activation” value in the experiment with active/cleaved caspase 3 (A549, after 48 hours) is “yes”; in the experiment on active/cleaved caspase 3 (BT-549, after 48 hours), “yes”; in the experiment with active/cleaved caspase 3 (MiaPaca2, after 48 hours), “yes”. The “Caspase 9 activation” value with active/cleaved caspase 9 (A549, after 48 hours) is reported as “yes”; in the experiment with active/cleaved caspase 9 (BT-549, after 48 hours), “yes”; in the experiment on active/cleaved caspase 9 (MiaPaca2, after 48 hours), “yes”.
`Cc1c(-c2ccn(C(C)C)n2)cn2nc(-c3nccn3C)nc(Nc3ccn(C4CC4)n3)c12` [Compound 84, N-(1-Cyclopropyl-1H-pyrazol-3-yl)-6-(1-isopropyl-1H-pyrazol-3-yl)-5-methyl-2-(1-methyl-1H-imidazol-2-yl)pyrrolo[2,1-f][1,2,4]triazin-4-amine]: the results for the IC50 in experiment [1] and in experiment [2] were 1 to 10 nM and less than 1 nM, respectively.

The record behind these values is US12459951B2, “Compounds that interact with RAS superfamily proteins for treatment of cancers, inflammatory diseases, rasopathies, and fibrotic disease” (SHY Therapeutics, LLC, priority 2022, dated 2025).
